Patent publication US20100197602A1, “USE OF FOLLICULAR GONADOTROPIN RELEASING PEPTIDE AS A THERAPEUTIC AGENT IN THE TREATMENT OF STREPTOCOCCUS PNEUMONIAE INFECTION” (priority 2007, published 2010)
Residues, ends and D or L forms follow the SMILES beside them.

What was measured:
Streptococcus pneumoniae = type: cell-based; conditions: 5 micrograms per ml
MRSA = conditions: 5 micrograms per ml
Pseudomonas aeruginosa = type: cell-based; conditions: 5 micrograms per ml
in vitro [1] = conditions: human, CEM-SS cells
in vitro [2] = conditions: human, MRC-5 cells (human embryonal lung fibroblasts)
[3] = Cell viability in HepG2-2.2.15 cells (dye uptake) of the HBV assay; conditions: human
HIV-1IIIB = assay: HIV-1 antiviral assay (CPE reduction, MTS); type: cell-based; conditions: peptide 10 micrograms per ml, 6 days post-infection
HCMV strain AD169 = assay: HCMV plaque reduction assay; type: cell-based; conditions: HCMV AD169 in MRC-5 cells; peptide 10 micrograms per ml; 7-10 days
Source text: Ganciclovir was used as positive control.

With `C[C@@H](O)[C@H](N)C(=O)N[C@@H](CC(=O)O)C(=O)N[C@H](C(=O)N[C@@H](CO)C(=O)N[C@@H](Cc1c[nH]cn1)C(=O)N[C@@H](Cc1c[nH]cn1)C(=O)N[C@@H](CC(=O)O)C(=O)N[C@@H](CCC(N)=O)C(=O)N[C@@H](CC(=O)O)C(=O)N[C@@H](Cc1c[nH]cn1)C(=O)N1CCC[C@H]1C(=O)N[C@H](C(=O)N[C@@H](Cc1ccccc1)C(=O)N[C@@H](CC(N)=O)C(=O)O)[C@@H](C)O)[C@@H](C)O` [FGRP, Thr-Asp-Thr-Ser-His-His-Asp-Gln-Asp-His-Pro-Thr-Phe-Asn-OH] (H-TDTSHHDQDHPTFN-OH) the “% inhibition” value (Streptococcus pneumoniae) was 100.0%, the “% inhibition” value (MRSA) was 0.0% and the “% inhibition” value (Pseudomonas aeruginosa) was 0.0%. It also gave a viability at 10 micrograms per ml (in vitro [1]) of 100%, a viability at 144 h (in vitro [2]) of 100% and a viability at 144 h, 10 micrograms per ml [3] of 100%.

For `Cc1cn([C@H]2C[C@H](N=[N+]=[N-])[C@@H](CO)O2)c(=O)[nH]c1=O` [AZT], the “% CPE reduction in HIV-1 infected CEM-SS cells” value (HIV-1IIIB) was 99%.

With `Nc1nc(O)c2ncn(COC(CO)CO)c2n1` [Ganciclovir] the “% plaque reduction” value (HCMV strain AD169) was 100%.
